The supplement of paper PMC13380429
Structures can show the parent of a compound that is named as a salt.

Assays:
Settings in all cases: 72 h
HepG2 [1] = assay: drug sensitivity score (DSS) for viability; higher = more toxic; extreme values may be limits of the assay
Caco-2 [2] = assay: as above
Vero E6 [3] = assay: as above
Calu-3 [4] = assay: as above
U2OS [5] = assay: as above
HepG2 [6] = assay: relative viability EC50 (midpoint between 100% and the lowest measured viability); higher = less toxic
Caco-2 [7] = assay: as above
Vero E6 [8] = assay: as above
Calu-3 [9] = assay: as above
U2OS [10] = assay: as above
HepG2 [11] = assay: cell viability relative to DMSO; higher = less toxic
Caco-2 [12] = assay: as above
Vero E6 [13] = assay: as above
Calu-3 [14] = assay: as above
U2OS [15] = assay: as above

Compound | drug sensitivity score (HepG2 [1]) | drug sensitivity score (Caco-2 [2]) | drug sensitivity score (Vero E6 [3]) | drug sensitivity score (Calu-3 [4]) | drug sensitivity score (U2OS [5]) | relative viability EC50 (HepG2 [6]) [µM] | relative viability EC50 (Caco-2 [7]) [µM] | relative viability EC50 (Vero E6 [8]) [µM] | relative viability EC50 (Calu-3 [9]) [µM] | relative viability EC50 (U2OS [10]) [µM] | cell viability (HepG2 [11]; 1 nM) [%] | cell viability (HepG2 [11]; 10 nM) [%] | cell viability (HepG2 [11]; 100 nM) [%] | cell viability (HepG2 [11]; 1000 nM) [%] | cell viability (HepG2 [11]; 10000 nM) [%] | cell viability (Caco-2 [12]; 1 nM) [%] | cell viability (Caco-2 [12]; 10 nM) [%] | cell viability (Caco-2 [12]; 100 nM) [%] | cell viability (Caco-2 [12]; 1000 nM) [%] | cell viability (Caco-2 [12]; 10000 nM) [%] | cell viability (Vero E6 [13]; 1 nM) [%] | cell viability (Vero E6 [13]; 10 nM) [%] | cell viability (Vero E6 [13]; 100 nM) [%] | cell viability (Vero E6 [13]; 1000 nM) [%] | cell viability (Vero E6 [13]; 10000 nM) [%] | cell viability (Calu-3 [14]; 1 nM) [%] | cell viability (Calu-3 [14]; 10 nM) [%] | cell viability (Calu-3 [14]; 100 nM) [%] | cell viability (Calu-3 [14]; 1000 nM) [%] | cell viability (Calu-3 [14]; 10000 nM) [%] | cell viability (U2OS [15]; 1 nM) [%] | cell viability (U2OS [15]; 10 nM) [%] | cell viability (U2OS [15]; 100 nM) [%] | cell viability (U2OS [15]; 1000 nM) [%] | cell viability (U2OS [15]; 10000 nM) [%]
CCCC(O)C(CC)CO (stereo not given) [2-ethyl-1,3-hexanediol] | 0 | 0 | 0.7 | 0 | 0 | > 10 | > 10 | > 10 | > 10 | > 10 | 78.7 | 105 | 98.8 | 81.1 | 101 | 106 | 88.9 | 101 | 93.9 | 93.3 | 95.5 | 102 | 101 | 104 | 75.5 | 105 | 101 | 102 | 94.6 | 103 | 102 | 99.1 | 95.9 | 97.8 | 102
COc1ccccc1N1CCN(CCn2c(=O)[nH]c3c([nH]c4ccccc43)c2=O)CC1 [3-MPPI] | 0 | 0 | 0 | 0 | 0 | > 10 | > 10 | > 10 | > 10 | > 10 | 102 | 111 | 106 | 102 | 92.2 | 96 | 93.8 | 99.4 | 96.1 | 103 | 104 | 104 | 102 | 99.4 | 103 | 99.6 | 105 | 104 | 98.8 | 106 | 103 | 98 | 102 | 99.4 | 101
COc1ccc(-c2coc3cc(O)cc(O)c3c2=O)cc1 [4-methylgenistein] | 0 | 0 | 0 | 0 | 0 | > 10 | > 10 | > 10 | > 10 | > 10 | 106 | 109 | 102 | 92.6 | 95.2 | 98.7 | 98.1 | 105 | 104 | 96 | 94 | 95 | 101 | 88.5 | 102 | 113 | 99 | 101 | 106 | 91 | 99.3 | 94.1 | 99.3 | 98.8 | 97.1
C[C@]12CCC(=O)C=C1CC[C@@H]1[C@@H]2CC[C@@]2(C)[C@H]1CC[C@]2(C)O [17-alpha-Methyltestosterone] | 0 | 0 | 0 | 0 | 0 | > 10 | > 10 | > 10 | > 10 | > 10 | 103 | 90.8 | 91.5 | 96.8 | 101 | 99.2 | 89.5 | 90.4 | 98.8 | 102 | 92.6 | 97.4 | 94.4 | 91.9 | 105 | 108 | 97.1 | 114 | 106 | 115 | 97.6 | 96.1 | 104 | 101 | 97.1
Oc1ccc(C2(c3ccccc3F)CCC(F)(F)CC2)cc1 [AC-186] | 0 | 0 | 0 | 0 | 0 | > 10 | > 10 | > 10 | > 10 | > 10 | 95.8 | 94.7 | 100 | 96.3 | 104 | 104 | 95 | 98.2 | 96.2 | 102 | 97.4 | 96.5 | 94.2 | 92.2 | 109 | 91 | 98.4 | 89.3 | 105 | 104 | 95.1 | 96.3 | 95.5 | 99.3 | 99
CC(C)OC(=O)N1CCC(Oc2ncnc3c2cnn3-c2ccc(S(C)(=O)=O)cc2F)CC1 [APD668] | 1 | 0 | 0 | 0 | 0 | > 10 | > 10 | > 10 | > 10 | > 10 | 103 | 102 | 96.2 | 98.6 | 77.1 | 106 | 98.4 | 93.6 | 96.1 | 89.1 | 90.5 | 95.2 | 100 | 95.7 | 105 | 106 | 107 | 102 | 108 | 92.7 | 99.4 | 101 | 97.4 | 106 | 97.5
Cc1cc(Nc2nc(N[C@@H](C)c3ncc(F)cn3)ncc2Cl)[nH]n1 [AZD1480] | 0.7 | 0.2 | 0 | 0 | 0 | > 10 | > 10 | > 10 | > 10 | > 10 | 98.6 | 101 | 96.5 | 87.9 | 89.4 | 93.2 | 102 | 95.5 | 102 | 84.2 | 94.3 | 96.2 | 95.9 | 100 | 97.9 | 106 | 91.6 | 99.7 | 96.6 | 90.8 | 99.7 | 102 | 102 | 101 | 97
N#Cc1cc(F)cc(-c2nc(-c3ccc(F)cn3)no2)c1 [AZD9272] | 0 | 0 | 0 | 0 | 0 | > 10 | > 10 | > 10 | > 10 | > 10 | 94.3 | 99.5 | 95.5 | 107 | 96.2 | 96.7 | 105 | 101 | 111 | 94.8 | 96.7 | 95.2 | 95.8 | 89.5 | 108 | 109 | 92.1 | 97.7 | 90.4 | 97.5 | 94.9 | 99 | 96.7 | 104 | 103
COc1ccccc1N1CCN(CCN2C(=O)CC3(CCCC3)CC2=O)CC1 [BMY-7378] | 0 | 0 | 0 | 0 | 0 | > 10 | > 10 | > 10 | > 10 | > 10 | 106 | 102 | 105 | 98.4 | 108 | 89 | 93.9 | 97.5 | 97.3 | 103 | 97.3 | 95.6 | 99.9 | 90.1 | 106 | 92.7 | 95.2 | 109 | 110 | 106 | 93.5 | 100 | 96.3 | 95.8 | 102
CCC(=O)O[C@]1(C(=O)CO)CC[C@H]2[C@@H]3CCC4=CC(=O)CC[C@]4(C)[C@H]3CC[C@@]21C [CB-03-01] | 0 | 0 | 0 | 0 | 0 | > 10 | > 10 | > 10 | > 10 | > 10 | 102 | 106 | 90.8 | 95.4 | 96.1 | 99.4 | 103 | 100 | 101 | 101 | 101 | 107 | 101 | 96.8 | 99.6 | 93.7 | 97 | 102 | 109 | 94.9 | 99.9 | 104 | 98.3 | 102 | 97
CO/N=C(\C(=O)N[C@@H]1C(=O)N2C(C(=O)O)=C(CSC(=O)c3ccco3)CS[C@H]12)c1csc(N)n1 [CEFTIOFUR HYDROCHLORIDE] | 0 | 0 | 0 | 0 | 0 | > 10 | > 10 | > 10 | > 10 | > 10 | 106 | 98.5 | 92.4 | 103 | 103 | 99.9 | 97 | 90.6 | 95.4 | 99.3 | 92.5 | 107 | 93.9 | 96.9 | 106 | 96.3 | 110 | 99.4 | 104 | 102 | 104 | 95.6 | 100 | 97.4 | 104
CC(C)(CO)Cc1cc(C(C)(C)C)c(O)c(C(C)(C)C)c1 [CGP-7930] | 0 | 0 | 0 | 0 | 0 | > 10 | > 10 | > 10 | > 10 | > 10 | 109 | 107 | 91.1 | 108 | 101 | 96.8 | 98.5 | 101 | 99.7 | 96 | 108 | 109 | 95.6 | 108 | 102 | 93.6 | 99.2 | 98.3 | 105 | 102 | 98.2 | 101 | 103 | 101 | 104
O=C(O)c1ccc2c(c1)nc(Nc1cccc(Cl)c1)c1ccncc12 [CX-4945] | 0.7 | 0 | 0.4 | 0.3 | 1.1 | > 10 | > 10 | > 10 | > 10 | > 10 | 106 | 109 | 92 | 102 | 77 | 98.7 | 95.2 | 92 | 95.6 | 97.7 | 101 | 98.4 | 101 | 95.1 | 86.5 | 111 | 103 | 111 | 101 | 83.2 | 102 | 101 | 101 | 88.4 | 84.8
O=C(O)CNC(=O)c1nc(Cl)c2ccccc2c1O [FG-2216] | 0 | 0 | 0 | 0 | 0 | > 10 | > 10 | > 10 | > 10 | > 10 | 101 | 98 | 96.4 | 99.1 | 95.3 | 98.2 | 102 | 99.3 | 94.1 | 93.5 | 100 | 99.4 | 104 | 102 | 99.5 | 106 | 98.5 | 96.6 | 103 | 103 | 107 | 98 | 101 | 91.5 | 93.2
